Results: patent US20260256670A1, “COMPOSITION CONTAINING PEPTIDES HAVING SKIN-LIGHTENING EFFECT” (REMEDI CO., LTD., priority 2022, published 2026)
Ends that are not written are not given here.

Test system: HaCaT cells
Assay: Cytotoxicity evaluation (CCK8 assay)
Assay type: cell-based
Conditions: serum-free medium, 24 hours
Method: HaCaT cells and B16F10 cells were cultured in a cell culture medium supplemented with 10% of fetal bovine serum (FBS) and antibiotic solution (100 units/ml penicillin, 100 μg/ml of streptomycin) in DMEM medium. The cells were cultured under conditions maintained at 37° C., 95% humidity, and 5% CO2, and when the cells were 70-80% adhered to the culture dish, they were treated with trypsin-EDTA and subcultured. HaCaT cells were distributed and cultured from Professor Tae-Yoon Kim of the College of Medicine, The Catholic University of Korea, and B16F10 cells were distributed and cultured from the Korean Cell Line Bank.
To evaluate the toxicity of RMNE1 in HaCaT skin cells, 3×10^4 of HaCaT cells were attached to a 96-well plate 12 hours ago. Thereafter, the cells were washed using serum-free DMEM medium and then treated with RMNE1 peptide at different concentrations in the serum-free medium. After 24 hours, the cells were washed a total of three times with serum-free medium, and then cell activity was measured using the CCK8 assay.

DEQERRRRRGRTRVRSE [RMNE1, DEQERRRRRGRTRVRSE]
cytotoxicity: low cytotoxicity
